Tested on: uPA mRNA
Assay: Northern blot of uPA mRNA in MCF-7 cells treated with demethylating agent (Example 6)
Type: cell-based, human
Settings: 25 uM, ten days, vs vehicle alone
Experimental: Human breast cancer cells MCF-7 were maintained in culture and at 65% confluent cells were treated with vehicle alone (MCF-7) or 25 uM of the demethylating agent 5 azc (MCF-7+5azc) for ten days. MDA-231 cells were used as positive control (MDA-231) for uPA expression. At the end of this period 20 μg of cellular RNA from each group were electophoresed on a 1.1% agarose/formaldehyde gel and […] a ^32p labeled 18 S RNA probe. All blots (FIG. 1A) were quantified by densitometric scanning (FIG. 1B). Significant difference from control cells is represented by an asterisk (p<0.05).

## Nc1ncn([C@@H]2O[C@H](CO)[C@@H](O)[C@H]2O)c(=O)n1 [5-azc]
  uPA mRNA (Northern blot, densitometric scanning): marked induction

Source: patent US7316900B2, “Methylated nucleotide regulation of gene expression” (Quebepharma Recherche, Inc., priority 2000, dated 2008)
